Consider 1 molecule from publication PMC12616682, “Identification of a Highly Cooperative PROTAC Degrader Targeting GTP-Loaded KRAS(On) Alleles” (Journal of the American Chemical Society, 2025).

Each structure is given as a SMILES string. Like-named read-outs stand apart in the source and are kept apart here.

For experiment [1], the target named is T1, HiBiT-KRAS^G12D in GP5d cells (Homo sapiens, UniProt P01116, G12D).
T1 construct: host or cells: GP5d HiBiT KRAS G12D
Kind of experiment: HiBiT degradation assay, HiBiT-KRAS^G12D GP5d cells. Type of experiment: cell-based. As to conditions: Gp5D (HiBit-G12D). Background: HiBiT is a short tag that completes a luciferase, so light tracks the accessible tagged protein.

Experiment [2] has as its target T2, HiBiT-KRAS^G12R in Cal-62 cells (Homo sapiens, UniProt P01116, G12R).
T2 construct: generated a HiBiT-KRAS^G12R Cal-62 knock-in cell line using the CRISPR Cas9 technology; endogenous in cells; host or cells: Cal-62 HiBiT KRAS G12R (in-house CRISPR knock-in)
Briefly: Kinetic degradation (live mode), Cal-62 HiBiT KRAS^G12R cells. The class given is cell-based. The note with it: Cal62-HiBit (G12R).

The target in another experiment is HRAS in Cal-62 cells (Homo sapiens, UniProt P01112). Kind of experiment: Western blot of HRAS levels in Cal-62 cells. In general terms: Immunoblotting shows a protein as a band on a membrane.
Sequence of HRAS in Cal-62 cells (P01112 whole entry): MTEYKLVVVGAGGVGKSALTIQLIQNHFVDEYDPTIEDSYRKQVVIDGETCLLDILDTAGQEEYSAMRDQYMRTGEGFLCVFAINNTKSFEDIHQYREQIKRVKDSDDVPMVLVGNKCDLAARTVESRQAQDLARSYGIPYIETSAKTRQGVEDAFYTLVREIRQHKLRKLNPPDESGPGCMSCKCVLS

For `CC(C)C(C(=O)N1CC(O)CC1C(=O)NCc1ccc2cnn(C)c2c1)n1nnc2c1CCC(CCCN1CCCN(c3nccc(-c4noc(C5(C)CCCc6sc(N)c(C#N)c65)n4)n3)C(C)C1)C2` (stereo not shown) [ACBI4], the Dmax in experiment [1] (4 h, read-out: DMax 4h) is 84%; in experiment [1] (24 h, read-out: DMax 24h) it was 93%; on HRAS in Cal-62 cells (CAL-62, read-out: HRAS Dmax) it was 72%. The DC50 in experiment [1] (4 h, read-out: Dc50 4h) is 9 nM; in experiment [1] (24 h, read-out: Dc50 24h), 2 nM; at HRAS in Cal-62 cells (read-out: HRAS DC50, Cal-62 cells, 4 h, Western blot), 637 nM. Moreover, the “1/K (Tau)” value in experiment [2] was found to be 0.689 µM. Also, in experiment [2], the “Plateau (degradation rate)” value was determined as 0.2774 min⁻¹. The “Plateu/ Tau” value in experiment [2] worked out at 6708 M⁻¹ s⁻¹. At HRAS in Cal-62 cells (Cal-62, DC50 637 nM vs 382 nM), the “window of HRAS degradation over KRAS degradation” value is on record as “ca. 2 fold”.
